Legend:
Assay in all cases: relative viability (nuclei count vs DMSO), 5 days (fraction); higher = more cells survive
Bleomycin + Vorinostat = compound: CC1=C(N=C(N=C1N)[C@H](CC(=O)N)NC[C@@H](C(=O)N)N)C(=O)N[C@@H]([C@H](C2=CN=CN2)OC3C(C(C(C(O3)CO)O)O)OC4C(C(C(C(O4)CO)O)OC(=O)N)O)C(=O)N[C@H](C)[C@H]([C@H](C)C(=O)N[C@@H]([C@@H](C)O)C(=O)NCCC5=NC(=CS5)C6=NC(=CS6)C(=O)NCCC[S+](C)C)O [Bleomycin] + O=C(CCCCCCC(=O)Nc1ccccc1)NO [Vorinostat] (partner 1 µM); conditions: main component drawn
Outline: (§1)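 Lung cancer cell lines in 1536-well plates were dosed by pin tool the day after seeding, either with one drug alone or with a fixed anchor-drug dose plus five library-drug doses (not always all listed) in √10 steps. After 5 days, cells were fixed and their nuclei stained in one step (final 0.05% Triton X-100, 1% formaldehyde, 1 ug/ml Hoechst), then counted on 4× images. Relative viability is the nuclei count in treated wells divided by that in vehicle wells. Values are medians of duplicate plates.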

Etoposide + Lapatinib = compound: COc1cc([C@@H]2c3cc4c(cc3[C@@H](O[C@@H]3O[C@@H]5CO[C@@H](C)O[C@H]5[C@H](O)[C@H]3O)[C@H]3COC(=O)[C@H]23)OCO4)cc(OC)c1O [Etoposide] + CS(=O)(=O)CCNCc1ccc(-c2ccc3ncnc(Nc4ccc(OCc5cccc(F)c5)c(Cl)c4)c3c2)o1 [Lapatinib] (partner 2 µM)
Outline: as §1

Bleomycin + Decitabine = compound: CC1=C(N=C(N=C1N)[C@H](CC(=O)N)NC[C@@H](C(=O)N)N)C(=O)N[C@@H]([C@H](C2=CN=CN2)OC3C(C(C(C(O3)CO)O)O)OC4C(C(C(C(O4)CO)O)OC(=O)N)O)C(=O)N[C@H](C)[C@H]([C@H](C)C(=O)N[C@@H]([C@@H](C)O)C(=O)NCCC5=NC(=CS5)C6=NC(=CS6)C(=O)NCCC[S+](C)C)O [Bleomycin] + Nc1ncn([C@H]2C[C@H](O)[C@@H](CO)O2)c(=O)n1 [Decitabine] (partner 2 µM); conditions: main component drawn
Outline: as §1

Etoposide + Alpelisib = compound: COc1cc([C@@H]2c3cc4c(cc3[C@@H](O[C@@H]3O[C@@H]5CO[C@@H](C)O[C@H]5[C@H](O)[C@H]3O)[C@H]3COC(=O)[C@H]23)OCO4)cc(OC)c1O [Etoposide] + Cc1nc(NC(=O)N2CCC[C@H]2C(N)=O)sc1-c1ccnc(C(C)(C)C(F)(F)F)c1 [Alpelisib] (partner 2 µM)
Outline: as §1

Row | Cell Line | relative viability (Bleomycin + Vorinostat; first compound 0.01 µM) | relative viability (Bleomycin + Vorinostat; first compound 0.03162 µM) | relative viability (Bleomycin + Vorinostat; first compound 0.1 µM) | relative viability (Bleomycin + Vorinostat; first compound 0.3162 µM) | relative viability (Bleomycin + Vorinostat; first compound 1 µM) | relative viability (Etoposide + Lapatinib; first compound 0.01 µM) | relative viability (Etoposide + Lapatinib; first compound 0.03162 µM) | relative viability (Etoposide + Lapatinib; first compound 0.1 µM) | relative viability (Etoposide + Lapatinib; first compound 0.3162 µM) | relative viability (Etoposide + Lapatinib; first compound 1 µM) | relative viability (Bleomycin + Decitabine; first compound 0.01 µM) | relative viability (Bleomycin + Decitabine; first compound 0.03162 µM) | relative viability (Bleomycin + Decitabine; first compound 0.1 µM) | relative viability (Bleomycin + Decitabine; first compound 0.3162 µM) | relative viability (Bleomycin + Decitabine; first compound 1 µM) | relative viability (Etoposide + Alpelisib; first compound 0.01 µM) | relative viability (Etoposide + Alpelisib; first compound 0.03162 µM) | relative viability (Etoposide + Alpelisib; first compound 0.1 µM) | relative viability (Etoposide + Alpelisib; first compound 0.3162 µM) | relative viability (Etoposide + Alpelisib; first compound 1 µM)
1 | NCI-H358 | 0.539 | 0.722 | 0.661 | 0.327 | 0.217 | 0.507 | 0.437 | 0.369 | 0.268 | 0.152 | 0.198 | 0.271 | 0.189 | 0.172 | 0.152 | 0.873 | 0.809 | 0.646 | 0.246 | 0.159
2 | NCI-H460 | 0.4 | 0.221 | 0.158 | 0.0343 | 0.0306 | 0.726 | 0.732 | 0.394 | 0.0299 | 0.0144 | 0.301 | 0.228 | 0.279 | 0.0468 | 0.0408 | 0.479 | 0.355 | 0.272 | 0.0559 | 0.0284
3 | NCI-H520 | 0.592 | 0.743 | 0.589 | 0.574 | 0.416 | 0.839 | 0.829 | 0.563 | 0.72 | 0.437 | 0.501 | 0.54 | 0.456 | 0.424 | 0.416 | 0.873 | 0.925 | 0.965 | 0.836 | 0.906
4 | NCI-H596 | 0.479 | 0.438 | 0.438 | 0.22 | 0.293 | 0.94 | 1.03 | – | 1.08 | 0.625 | 1 | 0.83 | 0.55 | 0.495 | 0.509 | 0.383 | 0.491 | – | 0.457 | 0.425
5 | NCI-H647 | 0.205 | 0.132 | 0.105 | 0.0704 | 0.0607 | 1.05 | 0.984 | 0.797 | 0.185 | 0.0906 | 0.289 | 0.183 | 0.152 | 0.0939 | 0.0806 | 1.19 | 1.22 | 1.02 | 0.429 | 0.125
6 | NCI-H650 | 0.295 | 0.441 | 0.376 | 0.328 | 0.212 | 0.657 | 0.951 | 0.409 | 0.418 | 0.207 | 0.305 | 0.318 | 0.299 | 0.2 | 0.175 | 0.945 | 0.977 | 0.949 | 0.5 | 0.24
7 | NCI-H661 | 0.777 | 0.708 | 0.565 | 0.376 | 0.346 | 0.44 | 0.416 | 0.314 | 0.283 | 0.235 | 0.552 | 0.572 | 0.434 | 0.37 | 0.315 | 0.995 | 0.61 | 0.413 | 0.388 | 0.3
8 | NCI-H727 | 1.18 | 1.17 | 1.08 | 0.618 | 0.93 | 0.844 | 0.937 | 0.511 | 0.665 | 0.589 | 0.938 | 0.686 | 0.893 | 0.459 | 0.776 | 0.616 | 0.524 | 0.566 | 0.58 | 0.423
